Measurements as given in the kinase profiling compilation of Christmann-Franck et al. (2016).

How the values were obtained:
[1] = target: PLK2 (human) (UniProt Q9NYY3); test: IMAP-FP
[2] = target: EIF2AK3 (human) (UniProt Q9NZJ5); test: IMAP-FP
[3] = target: PKN1 (human) (UniProt Q16512); test: IMAP-FP
[4] = target: EIF2AK2 (human) (UniProt P19525); test: IMAP-FP
[5] = target: SRPK1 (human) (UniProt Q96SB4); test: IMAP-FP
[6] = target: MAP3K9 (human) (UniProt P80192); test: ELISA
[7] = target: MOS (human) (UniProt P00540); test: ELISA
[8] = target: TTK (human) (UniProt P33981); test: ELISA
[9] = target: RAF1 (human) (UniProt P04049); test: ELISA
[10] = target: STK11 (human) (UniProt Q15831); test: ELISA
[11] = target: MAP3K1 (human) (UniProt Q13233); test: ELISA
[12] = target: LIMK1 (human) (UniProt P53667); test: ELISA
[13] = target: MAP3K11 (human) (UniProt Q16584); test: ELISA
[14] = target: MAP2K7 (human) (UniProt O14733); test: ELISA
[15] = target: PLK4 (human) (UniProt O00444); test: ELISA
[16] = target: MAP2K4 (human) (UniProt P45985); test: ELISA
[17] = target: MAP2K6 (human) (UniProt P52564); test: ELISA
[18] = target: WEE1 (human) (UniProt P30291); test: ELISA
[19] = target: MAP3K3 (human) (UniProt Q99759); test: ELISA
[20] = target: MAP2K3 (human) (UniProt P46734); test: ELISA
[21] = target: MAP3K8 (human) (UniProt P41279); test: ELISA
[22] = target: MAP3K10 (human) (UniProt Q02779); test: ELISA
[23] = target: MAP2K2 (human) (UniProt P36507); test: ELISA
[24] = target: MAP2K1 (human) (UniProt Q02750); test: ELISA
[25] = target: MAP3K12 (human) (UniProt Q12852); test: ELISA
[26] = target: MAP3K5 (human) (UniProt Q99683); test: ELISA
[27] = target: MAP3K4 (human) (UniProt Q9Y6R4); test: ELISA
[28] = target: BMPR1A (human) (UniProt P36894); test: ELISA
[29] = target: MAP2K5 (human) (UniProt Q13163); test: ELISA
[30] = target: MAP3K2 (human) (UniProt Q9Y2U5); test: ELISA
[31] = target: MAP4K2 (human) (UniProt Q12851); test: Caliper, Mobility shift assay off-chip
[32] = target: INSR (human) (UniProt P06213); test: Caliper, Mobility shift assay off-chip
[33] = target: CHEK1 (human) (UniProt O14757); test: Caliper, Mobility shift assay off-chip
[34] = target: STK38 (human) (UniProt Q15208); test: Caliper, Mobility shift assay off-chip

Sequence of STK11 (human) (Q15831 whole entry, looked up): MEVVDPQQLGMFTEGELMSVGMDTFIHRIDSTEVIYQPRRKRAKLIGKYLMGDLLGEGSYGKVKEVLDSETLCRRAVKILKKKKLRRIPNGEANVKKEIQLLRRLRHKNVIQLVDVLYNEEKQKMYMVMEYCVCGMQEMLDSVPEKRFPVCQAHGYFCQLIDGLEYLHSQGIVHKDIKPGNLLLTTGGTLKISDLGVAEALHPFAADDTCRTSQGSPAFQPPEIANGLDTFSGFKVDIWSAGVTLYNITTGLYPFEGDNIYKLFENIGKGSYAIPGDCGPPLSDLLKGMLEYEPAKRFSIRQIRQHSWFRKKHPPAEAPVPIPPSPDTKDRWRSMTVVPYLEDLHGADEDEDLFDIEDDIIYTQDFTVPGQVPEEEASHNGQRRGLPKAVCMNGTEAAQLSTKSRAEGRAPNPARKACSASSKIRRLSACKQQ
Sequence of INSR (human) (P06213 whole entry, looked up): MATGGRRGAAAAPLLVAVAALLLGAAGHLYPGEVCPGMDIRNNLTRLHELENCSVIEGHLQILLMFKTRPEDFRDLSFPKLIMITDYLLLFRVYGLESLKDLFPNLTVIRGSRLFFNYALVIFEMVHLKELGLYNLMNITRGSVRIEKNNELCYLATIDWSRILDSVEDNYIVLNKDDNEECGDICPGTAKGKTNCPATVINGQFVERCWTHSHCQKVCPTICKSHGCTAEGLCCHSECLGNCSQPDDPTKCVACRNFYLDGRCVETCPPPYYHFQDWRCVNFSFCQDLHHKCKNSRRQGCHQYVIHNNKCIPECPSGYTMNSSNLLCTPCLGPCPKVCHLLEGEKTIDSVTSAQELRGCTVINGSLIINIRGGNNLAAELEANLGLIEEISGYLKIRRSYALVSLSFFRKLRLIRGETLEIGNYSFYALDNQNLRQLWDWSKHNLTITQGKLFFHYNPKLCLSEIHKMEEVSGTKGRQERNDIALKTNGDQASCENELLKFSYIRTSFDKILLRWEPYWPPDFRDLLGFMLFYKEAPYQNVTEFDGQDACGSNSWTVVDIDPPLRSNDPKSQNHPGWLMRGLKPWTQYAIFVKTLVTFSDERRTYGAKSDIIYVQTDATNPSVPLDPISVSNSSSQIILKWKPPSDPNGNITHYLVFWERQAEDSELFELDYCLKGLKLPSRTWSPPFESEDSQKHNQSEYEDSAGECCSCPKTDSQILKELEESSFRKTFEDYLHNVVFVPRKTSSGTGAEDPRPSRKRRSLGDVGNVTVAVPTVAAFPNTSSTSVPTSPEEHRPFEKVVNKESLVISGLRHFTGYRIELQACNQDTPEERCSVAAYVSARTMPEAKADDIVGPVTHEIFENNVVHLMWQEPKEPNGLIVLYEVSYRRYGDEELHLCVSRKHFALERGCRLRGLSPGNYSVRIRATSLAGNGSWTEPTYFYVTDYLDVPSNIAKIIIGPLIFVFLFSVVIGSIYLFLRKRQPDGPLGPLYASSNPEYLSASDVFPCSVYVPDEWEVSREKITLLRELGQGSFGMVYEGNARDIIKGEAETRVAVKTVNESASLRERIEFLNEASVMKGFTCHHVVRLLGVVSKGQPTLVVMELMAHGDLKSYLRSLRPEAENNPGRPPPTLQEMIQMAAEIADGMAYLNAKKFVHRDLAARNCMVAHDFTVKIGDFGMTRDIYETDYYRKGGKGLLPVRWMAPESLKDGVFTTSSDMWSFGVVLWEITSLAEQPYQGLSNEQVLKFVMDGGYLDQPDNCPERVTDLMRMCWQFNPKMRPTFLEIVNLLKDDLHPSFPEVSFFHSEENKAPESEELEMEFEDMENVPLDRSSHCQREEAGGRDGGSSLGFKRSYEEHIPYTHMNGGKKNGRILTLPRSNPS
Sequence of WEE1 (human) (P30291 whole entry, looked up): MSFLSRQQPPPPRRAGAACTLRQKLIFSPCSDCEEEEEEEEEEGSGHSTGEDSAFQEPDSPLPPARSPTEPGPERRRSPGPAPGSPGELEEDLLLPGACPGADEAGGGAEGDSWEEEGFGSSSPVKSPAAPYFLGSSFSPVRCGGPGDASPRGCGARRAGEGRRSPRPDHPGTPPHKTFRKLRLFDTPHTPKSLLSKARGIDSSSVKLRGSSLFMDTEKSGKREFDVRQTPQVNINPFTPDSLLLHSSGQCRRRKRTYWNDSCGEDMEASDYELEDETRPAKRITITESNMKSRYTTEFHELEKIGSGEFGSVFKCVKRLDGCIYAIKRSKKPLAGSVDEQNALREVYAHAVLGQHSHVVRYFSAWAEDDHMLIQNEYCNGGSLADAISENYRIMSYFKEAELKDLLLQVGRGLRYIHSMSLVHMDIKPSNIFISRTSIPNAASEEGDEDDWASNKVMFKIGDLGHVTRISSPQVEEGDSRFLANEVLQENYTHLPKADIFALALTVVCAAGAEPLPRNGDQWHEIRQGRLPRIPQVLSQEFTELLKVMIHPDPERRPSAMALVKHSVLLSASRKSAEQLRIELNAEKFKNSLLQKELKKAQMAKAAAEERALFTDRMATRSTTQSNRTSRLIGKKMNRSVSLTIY
Sequence of MAP2K3 (human) (P46734 whole entry, looked up): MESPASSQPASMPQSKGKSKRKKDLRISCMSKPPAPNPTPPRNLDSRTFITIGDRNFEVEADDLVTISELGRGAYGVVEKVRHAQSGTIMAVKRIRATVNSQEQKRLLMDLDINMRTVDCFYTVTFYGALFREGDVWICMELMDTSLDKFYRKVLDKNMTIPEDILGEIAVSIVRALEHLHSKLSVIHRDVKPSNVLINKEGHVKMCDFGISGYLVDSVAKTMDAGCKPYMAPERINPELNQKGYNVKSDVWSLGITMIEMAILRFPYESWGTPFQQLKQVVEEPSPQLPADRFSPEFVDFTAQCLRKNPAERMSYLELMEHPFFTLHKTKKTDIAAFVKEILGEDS
Sequence of MAP2K7 (human) (O14733 whole entry, looked up): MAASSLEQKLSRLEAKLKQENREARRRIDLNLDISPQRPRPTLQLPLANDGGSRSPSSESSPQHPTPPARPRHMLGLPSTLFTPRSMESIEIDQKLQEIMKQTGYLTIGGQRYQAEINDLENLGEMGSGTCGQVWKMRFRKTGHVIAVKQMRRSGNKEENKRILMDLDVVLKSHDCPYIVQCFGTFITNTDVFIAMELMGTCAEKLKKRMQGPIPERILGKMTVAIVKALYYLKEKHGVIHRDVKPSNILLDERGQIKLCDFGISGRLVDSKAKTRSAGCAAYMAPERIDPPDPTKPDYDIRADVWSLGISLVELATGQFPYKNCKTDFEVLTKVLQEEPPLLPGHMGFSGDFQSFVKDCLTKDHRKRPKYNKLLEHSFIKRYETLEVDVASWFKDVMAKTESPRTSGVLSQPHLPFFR
Sequence of MAP3K5 (human) (Q99683 whole entry, looked up): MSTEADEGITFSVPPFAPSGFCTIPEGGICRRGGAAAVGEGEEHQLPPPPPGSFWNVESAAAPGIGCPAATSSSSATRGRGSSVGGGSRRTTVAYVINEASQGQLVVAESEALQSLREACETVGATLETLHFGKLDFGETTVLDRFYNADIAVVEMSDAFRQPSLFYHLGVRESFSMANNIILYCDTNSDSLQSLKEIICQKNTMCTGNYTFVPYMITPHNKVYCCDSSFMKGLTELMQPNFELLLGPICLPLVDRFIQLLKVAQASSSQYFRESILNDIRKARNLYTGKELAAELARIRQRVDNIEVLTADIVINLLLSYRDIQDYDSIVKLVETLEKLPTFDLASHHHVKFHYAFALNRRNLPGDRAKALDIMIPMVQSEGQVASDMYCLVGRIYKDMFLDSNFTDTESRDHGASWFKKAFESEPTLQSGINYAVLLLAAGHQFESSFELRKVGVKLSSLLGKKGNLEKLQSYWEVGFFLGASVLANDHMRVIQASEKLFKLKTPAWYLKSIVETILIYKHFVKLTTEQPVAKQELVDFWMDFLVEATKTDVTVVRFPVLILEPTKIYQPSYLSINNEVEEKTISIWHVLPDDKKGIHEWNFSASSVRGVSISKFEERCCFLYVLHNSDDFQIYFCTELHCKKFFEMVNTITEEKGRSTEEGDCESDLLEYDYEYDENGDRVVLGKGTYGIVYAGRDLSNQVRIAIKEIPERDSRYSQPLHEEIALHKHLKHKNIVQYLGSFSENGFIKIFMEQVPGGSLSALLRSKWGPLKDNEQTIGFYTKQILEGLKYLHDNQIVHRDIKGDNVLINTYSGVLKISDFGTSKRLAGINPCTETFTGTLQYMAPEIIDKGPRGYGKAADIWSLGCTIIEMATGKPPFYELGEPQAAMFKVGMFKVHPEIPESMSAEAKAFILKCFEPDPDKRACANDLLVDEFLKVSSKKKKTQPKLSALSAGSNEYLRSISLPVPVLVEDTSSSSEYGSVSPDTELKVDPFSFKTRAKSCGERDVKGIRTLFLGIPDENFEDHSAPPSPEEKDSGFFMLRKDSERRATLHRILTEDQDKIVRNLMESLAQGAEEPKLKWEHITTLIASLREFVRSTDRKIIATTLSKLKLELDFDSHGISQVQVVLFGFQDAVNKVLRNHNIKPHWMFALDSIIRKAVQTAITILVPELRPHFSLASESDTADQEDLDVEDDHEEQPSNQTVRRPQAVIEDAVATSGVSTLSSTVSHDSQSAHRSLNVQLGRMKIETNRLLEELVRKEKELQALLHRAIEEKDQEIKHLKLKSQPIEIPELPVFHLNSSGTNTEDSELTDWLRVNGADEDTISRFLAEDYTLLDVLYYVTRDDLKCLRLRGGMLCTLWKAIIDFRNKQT
Sequence of MAP2K4 (human) (P45985 whole entry, looked up): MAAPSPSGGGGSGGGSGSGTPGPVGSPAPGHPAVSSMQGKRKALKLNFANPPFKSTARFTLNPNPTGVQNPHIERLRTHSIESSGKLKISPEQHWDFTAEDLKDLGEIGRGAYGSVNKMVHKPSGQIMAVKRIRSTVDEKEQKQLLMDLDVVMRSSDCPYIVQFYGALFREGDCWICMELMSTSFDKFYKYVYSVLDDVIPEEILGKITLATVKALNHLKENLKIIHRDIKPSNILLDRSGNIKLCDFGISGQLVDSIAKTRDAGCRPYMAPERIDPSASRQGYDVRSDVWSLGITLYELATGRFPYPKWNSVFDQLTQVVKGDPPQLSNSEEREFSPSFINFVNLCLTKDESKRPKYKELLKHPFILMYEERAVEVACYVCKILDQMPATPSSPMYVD

inhibition ([1]; compound 0.02 µM): -0.6%
inhibition ([1]; compound 0.2 µM): -2.1%
inhibition ([2]; compound 0.02 µM): -23.9%
inhibition ([2]; compound 0.2 µM): 4.5%
inhibition ([3]; compound 0.02 µM): -40.2%
inhibition ([3]; compound 0.2 µM): -39.4%
inhibition ([4]; compound 0.02 µM): -12.3%
inhibition ([4]; compound 0.2 µM): -14.3%
inhibition ([5]; compound 0.02 µM): -5.4%
inhibition ([5]; compound 0.2 µM): 0.2%
inhibition ([6]; compound 0.02 µM): 8.6%
inhibition ([6]; compound 0.2 µM): 10.1%
inhibition ([7]; compound 0.02 µM): 3%
inhibition ([7]; compound 0.2 µM): 0.5%
inhibition ([8]; compound 0.02 µM): -7.6%
inhibition ([8]; compound 0.2 µM): -4.3%
inhibition ([9]; compound 0.02 µM): 41.7%
inhibition ([9]; compound 0.2 µM): 88.1%
inhibition ([10]; compound 0.02 µM): 6.4%
inhibition ([10]; compound 0.2 µM): 6.2%
inhibition ([11]; compound 0.02 µM): 0.7%
inhibition ([11]; compound 0.2 µM): -0.2%
inhibition ([12]; compound 0.02 µM): 2.6%
inhibition ([12]; compound 0.2 µM): 13%
inhibition ([13]; compound 0.02 µM): 2.4%
inhibition ([13]; compound 0.2 µM): -2.6%
inhibition ([14]; compound 0.02 µM): -0.7%
inhibition ([14]; compound 0.2 µM): 1.1%
inhibition ([15]; compound 0.02 µM): 10.5%
inhibition ([15]; compound 0.2 µM): 13.4%
inhibition ([16]; compound 0.02 µM): 1.7%
inhibition ([16]; compound 0.2 µM): 3.6%
inhibition ([17]; compound 0.02 µM): 13.6%
inhibition ([17]; compound 0.2 µM): 64.2%
inhibition ([18]; compound 0.02 µM): -7.4%
inhibition ([18]; compound 0.2 µM): -2%
inhibition ([19]; compound 0.02 µM): -2.1%
inhibition ([19]; compound 0.2 µM): -3%
inhibition ([20]; compound 0.02 µM): 9.8%
inhibition ([20]; compound 0.2 µM): 58.5%
inhibition ([21]; compound 0.02 µM): 0.5%
inhibition ([21]; compound 0.2 µM): 0.2%
inhibition ([22]; compound 0.02 µM): -1.8%
inhibition ([22]; compound 0.2 µM): -2.3%
inhibition ([23]; compound 0.02 µM): -1.8%
inhibition ([23]; compound 0.2 µM): -2.7%
inhibition ([24]; compound 0.02 µM): 13.7%
inhibition ([24]; compound 0.2 µM): 17.4%
inhibition ([25]; compound 0.02 µM): 4.1%
inhibition ([25]; compound 0.2 µM): 2.7%
inhibition ([26]; compound 0.02 µM): 9.6%
inhibition ([26]; compound 0.2 µM): 7.4%
inhibition ([27]; compound 0.02 µM): 8.5%
inhibition ([27]; compound 0.2 µM): 4.4%
inhibition ([28]; compound 0.02 µM): 6.9%
inhibition ([28]; compound 0.2 µM): 7%
inhibition ([29]; compound 0.02 µM): 3.6%
inhibition ([29]; compound 0.2 µM): 6.2%
inhibition ([30]; compound 0.02 µM): 5.2%
inhibition ([30]; compound 0.2 µM): 5.2%
inhibition ([31]; compound 0.02 µM): 3.2%
inhibition ([31]; compound 0.2 µM): 11.5%
inhibition ([32]; compound 0.02 µM): -8.9%
inhibition ([32]; compound 0.2 µM): 2.1%
inhibition ([33]; compound 0.02 µM): -2.7%
inhibition ([33]; compound 0.2 µM): 5.3%
inhibition ([34]; compound 0.02 µM): -2.5%
inhibition ([34]; compound 0.2 µM): 4.8%
Structure (SMILES): CNC(=O)c1cc(Oc2ccc(NC(=O)Nc3ccc(Cl)c(C(F)(F)F)c3)cc2)ccn1
